# From patent US10093627B2, “Tetrahydroquinoline derivatives and their use as Epac inhibitors” (Institut National de la Sante et de la Recherche Medicale …, priority 2012, dated 2018)
# Columns and labels:
# [1] = tested on: Iso-induced NFAT-Luc transcriptional activation; assay: NFAT-Luc transcriptional activation (Firefly luciferase assay) in neonatal cardiomyocytes; format: cell-based, rat; settings: CE3F4 20 μM, 30 min pretreatment; Iso 10 μM, 8 h; FIG. 4B
# Method: (§1) ANF and NFAT promoters were fused to the Firefly luciferase gene (ANF-Luc) (NFAT-Luc) to detect ANF and NFAT by Firefly Luciferase assay (see Materiel and Methods).
# (§2) Rat neonatal cardiomyocytes were cotransfected with ANF-Luc and Epac1 or empty vector pcDNA3 as control. One day after transfection, cells were pretreated or not with CE3F4 (20 μM) for 30 min and stimulated or not with Iso (10 μM) for 8 h. Cells were then assayed for Luciferase activity. B) Iso-induced NFAT-Luc Transcriptional Activation is Blocked by CE3F4: Neonatal cardiomyocytes were transfected with NFAT-Luc. One day later cells were pretreated or not with CE3F4 (20 μM) for 30 min and stimulated or not with Iso (10 μM) for 8 h. The day after, cells were assayed for Luciferase activity.
# (§3) Results were normalized to control for each experiment, and were expressed as means±S.E.M of at 4 (FIG. 4A) or 5 (FIG. 4B) independent experiments performed in triplicates.
# (§4) The rat ANF promoter fused to the Firefly luciferase reporter gene (ANF-Luc) by Dr K. Knowlton, Epac and Rap1 plasmid construct (Epac1^WT) by Drs J. L. Bos and J. de Gunzburg, respectively. The Firefly luciferase reporter plasmid driven by four NFAT consensus binding sites (NFAT-Luc) was purchased from Stratagene. […]
# (§5) Cells were lysed, and luminescence was detected using the Luciferase Assay System (Promega) according to the manufacturer's instructions with Tecan Infinite.
# [2] = tested on: Iso-induced ANF-Luc transcriptional activation; assay: ANF-Luc transcriptional activation (Firefly luciferase assay) in rat neonatal cardiomyocytes; format: cell-based; settings: CE3F4 20 μM, 30 min pretreatment; Iso 10 μM, 8 h; FIG. 4A
# Method: as §1, §2, §3, §4, §5
# [3] = tested on: Epac1-induced Rap1 activation in HEK293 cells; assay: Epac1-induced Rap1 activation, Rap1-GTP pull-down in HEK293 cells; format: cell-based; settings: 10 min
# Method: HEK293 cells were transfected with either pcDNA3 control vector or Epac1 (see FIG. 2A).
# HEK293 cells were transfected with Epac1 and 24 h after transfection, cells were preincubated or not with CE3F4 for 30 min and were then treated or not with Sp-007 (10 μM) for 10 min (see FIG. 2B).
# HEK293 cells overexpressing β1AR (Beta-1 adrenergic receptors) and transfected with Epac1 were pretreated or not with CE3F4 and stimulated or not with Iso (10 μM) for 10 min (see FIG. 2C).
# Amounts of Rap1-GTP were determined by pull-down assays (see Material and Methods). The bar graph represents the mean±S.E.M. of 5 (FIG. 2A, 2B) or 3 (FIG. 2C) independent experiments. Results are expressed as the percentage of unstimulated control cells.
# Ras and Rap1 pull-down experiments were performed using a GST fusion protein containing respectively the Ras binding domain of Raf1-RBD and the Rap1 binding domain of Ral-GDS as previously described (Métrich et al., 2008). Cells were starved for 1 h before stimulation in MEM free with penicillin-streptomycin (1%). After stimulation, cells were lysed in RIPA buffer (50 mM Tris-HCl, pH 7.5; 500 mM NaCl; 20 mM MgCl2; 0.5% deoxycholic acid; 0.1% SDS; 1% Triton X-100; 1 mM PMSF; protease and phosphatase inhibitors) and 500 μg of protein were incubated with either GST-Raf1-RBD (for Ras) or Ral-GDS (for Rap1) coupled to glutathione-Sepharose beads (Amersham Biosciences) for 1h at 4° C. Beads were then washed three times in washing buffer (50 mM Tris-HCl, pH 7.5; 150 mM NaCl, 20 mM MgCl2, 1% Triton X-100; 0.1 mM PMSF; protease and phosphatase inhibitors). Rap1-GTP or Ras samples and corresponding total lysates were separated on SDS-PAGE gels and transferred onto a polyvinylidene difluoride (PVDF) membrane (Amersham Pharmacia Biotech).
smiles,measurement,setting,value
CC1CCc2c(cc(Br)c(F)c2Br)N1C=O (racemic) [CE3F4],Effect on Iso-induced NFAT transcriptional activity,[1],prevented
same,Effect on Iso-induced ANF-Luc gene transcriptional activity,[2],significantly inhibited
same,Effect on increase in amount of Rap1-GTP following Sp-007 treatment,"[3]; CE3F4 20 μM, 30 min preincubation, Sp-007 10 μM, HEK293 transfected with Epac1, FIG. 2B",prevented the increase
same,Effect on Epac1-induced Rap1 activation following β1-AR stimulation by isoprenaline,"[3]; Iso 10 μM, HEK293 overexpressing β1AR, transfected with Epac1, FIG. 2C",decreased
